Results on one molecule are retold here after article PMC3412845, “Waking Action of Ursodeoxycholic Acid (UDCA) Involves Histamine and GABAA Receptor Block” (PLoS ONE, 2012).

In data set [1] the target is T1, β3 homopentameric GABAA receptors (Homo sapiens, UniProt P28472).
T1 construct: expressed in transfected cells; host or cells: HEK293
Put plainly: Block of spontaneous openings of β3 homopentameric receptors (outward shift of baseline current). The class given is cell-based. As for the experimental part: (§1) HEK 293 cells were obtained from DSM (Deutsche Sammlung von Mikroorganismen und Zellkulturen GmbH, DSM, Braunschweig). They were grown and maintained according to published standard protocols. Briefly, cells were grown in minimal essential medium supplemented with 10% fetal bovine serum, 100units/ml penicillin and streptomycin and 2 mM L-glutamine and splitted once per week. Semiconfluent cells were transfected on the third day after splitting with the help of Lipofectamine 2000 (Invitrogen), recordings were done 48–72 hrs after transfection.
(§2) The GABAAR subunit cDNAs, generously donated by G.Gisselmann (rat α1, mouse γ2L, rat β1, β2 and human β3 [26]) and J.H. Steinbach (rat α1V256S [28] and rat α1Q241L [44]), were subcloned into pcDNA3 (Invitrogen, Karlsruhe, Germany) and applied in a ratio 1∶1∶1 for the α1βxγ2L receptor and 1∶1 for α1β3 or β3γ2L receptors. […] For each receptor type patch clamp recordings were obtained from at least three separate transfections. Whole-cell patch clamp recordings were done in a similar extracellular solution as for the native cells (see above) except that the concentration of MgCl2 was reduced to 1.2 mM. Intracellular electrodes contained 140 mM CsCl (instead of KCl), pH adjusted with CsOH. The voltage was held at −40 mV.

The target in another data set is T2, α1β1γ2L GABAA receptors (UniProt P15431+P22723+P62813).
T2 construct: expressed in transfected cells; host or cells: HEK293
Put plainly: Patch-clamp of recombinant α1β1γ2L GABAAR in HEK293 cells. The class given is cell-based, rat α1, rat β1, mouse γ2L. As for the experimental part:
as §1, §2
(Patch clamp records ionic current or voltage across a cell membrane.)

For another data set, the system named is native GABAA receptors. Nature of the data set: GABA-evoked whole-cell currents in acutely isolated TMN neurons (wild type). The format is cell-based, mouse. The protocol: Recordings from histaminergic neurons in male Wistar rat (22–26 day old) or 30–60 day old mouse (SV129, histidine decarboxylase deficient HDC−/− or their wild type littermates) hypothalamic slices were performed as previously described. Slices were obtained between 9 and 11 a.m. In the beginning of whole-cell voltage clamp recordings TMN neurons were identified with the help of DIC microscopy and electrophysiological criteria as previously described. Inhibitory postsynaptic currents (IPSCs) were evoked by local stimulation through a bipolar stainless-steel stimulating electrode (50 µm; WPI, UK). The stimulation of axonal endings coming to TMN from ventrolateral preoptic area (VLPO) was done as described in [22]. […] Individual neurons were separated by vibrodissociation after brief preincubation with papain from the hypothalamic slices of mice or rats and identified as TMN neurons according to their size and shape. Identification was confirmed post hoc with the single-cell RT-PCR (all data presented in the manuscript were obtained from histidine decarboxylase-expressing neurons), [40]. TMN neurons from HDC−/− mice were identified by the expression of peripherin [16]. Whole-cell voltage-clamp recordings from isolated neurons were done with an EPC-9 amplifier and TIDA for Windows (HEKA, Lambrecht, Germany) at room temperature. Membrane potentials were not corrected for liquid junction potential (5.6 mV, calculated with LJPCalc, Barry, 1994). The intracellular solution was composed of (in mM) 140 KCl, 2 MgCl2, 0.5 CaCl2, 5 EGTA, 2 ATP and 10 HEPES (pH 7.2 adjusted with NaOH). A fast perfusion technique was used for application of ligands and modulators of fast ionotropic receptors, [41]. […] EC50 is the ligand concentration producing a half-maximal response, [ligand] is ligand concentration, and n is the Hill slope. Hill coefficients were obtained from the slope of the log/log plot of the dose-response curves. […] Steady-state amplitudes of the responses were used for the construction of dose-response plots if not mentioned otherwise.

For data set [2], the target named is T3, homopentameric β3 GABAA receptors (Homo sapiens, UniProt P28472).
T3 construct: expressed in transfected cells; host or cells: HEK293
Nature of the data set: Patch-clamp of β3 homopentameric receptors in HEK293 cells, histamine-evoked currents. To be noted: histamine 5 mM. The class given is cell-based. The protocol: as §1, §2

Details of data set [3]: method as in PMID 12236487, PMID 15349909. To be noted: after several month of UDCA therapy (up to 35 mg/kg); cited from earlier work.
Data set [4] has as its target T4, α1V256Sβ2γ2L GABAA receptors (UniProt P22723+P62813+P63138, V283S).
T4 construct: expressed in transfected cells; host or cells: HEK293
Nature of the data set: Patch-clamp of mutant α1V256Sβ2γ2L GABAAR in HEK293 cells. The format is cell-based, rat α1V256S, rat β2, mouse γ2L. The protocol: as §1, §2

For the next data set, the system named is GABAA receptor. Nature of the data set: Voltage dependence of GABAAR block (Woodhull analysis). The format is cell-based. The protocol: Voltage dependence of GABAAR block by UDCA was analysed according to the method of Woodhull, which provides a means of calculating the fraction of the transmembrane field sensed by charged blocking ligand at its acceptor site.

T1 sequence (P28472 26-473): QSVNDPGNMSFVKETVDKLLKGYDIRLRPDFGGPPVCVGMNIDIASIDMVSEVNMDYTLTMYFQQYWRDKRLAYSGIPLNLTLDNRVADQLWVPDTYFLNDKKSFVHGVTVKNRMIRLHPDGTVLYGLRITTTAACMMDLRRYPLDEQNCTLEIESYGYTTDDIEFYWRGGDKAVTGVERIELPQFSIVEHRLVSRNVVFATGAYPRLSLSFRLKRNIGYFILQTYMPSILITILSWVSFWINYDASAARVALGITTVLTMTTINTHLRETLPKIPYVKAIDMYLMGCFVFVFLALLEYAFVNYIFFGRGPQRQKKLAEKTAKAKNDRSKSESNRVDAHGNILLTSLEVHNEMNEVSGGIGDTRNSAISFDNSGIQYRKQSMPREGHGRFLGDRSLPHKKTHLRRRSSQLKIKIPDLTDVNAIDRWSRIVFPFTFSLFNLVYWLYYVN
T3 sequence (P28472 26-473): as above
T4 sequence (P62813 28-455 V283S): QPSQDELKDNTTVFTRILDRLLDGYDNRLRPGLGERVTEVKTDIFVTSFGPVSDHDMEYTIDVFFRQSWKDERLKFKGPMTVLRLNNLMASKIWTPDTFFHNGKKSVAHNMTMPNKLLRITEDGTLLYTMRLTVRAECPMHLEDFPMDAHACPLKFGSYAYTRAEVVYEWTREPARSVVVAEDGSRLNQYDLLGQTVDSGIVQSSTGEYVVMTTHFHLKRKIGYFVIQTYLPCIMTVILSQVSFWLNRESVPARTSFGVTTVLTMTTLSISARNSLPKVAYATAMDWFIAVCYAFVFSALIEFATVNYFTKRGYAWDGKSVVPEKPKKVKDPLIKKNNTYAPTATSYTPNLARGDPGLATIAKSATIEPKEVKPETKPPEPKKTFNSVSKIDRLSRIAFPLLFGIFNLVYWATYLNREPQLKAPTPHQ
T4 sequence (P63138 25-474 limits assumed): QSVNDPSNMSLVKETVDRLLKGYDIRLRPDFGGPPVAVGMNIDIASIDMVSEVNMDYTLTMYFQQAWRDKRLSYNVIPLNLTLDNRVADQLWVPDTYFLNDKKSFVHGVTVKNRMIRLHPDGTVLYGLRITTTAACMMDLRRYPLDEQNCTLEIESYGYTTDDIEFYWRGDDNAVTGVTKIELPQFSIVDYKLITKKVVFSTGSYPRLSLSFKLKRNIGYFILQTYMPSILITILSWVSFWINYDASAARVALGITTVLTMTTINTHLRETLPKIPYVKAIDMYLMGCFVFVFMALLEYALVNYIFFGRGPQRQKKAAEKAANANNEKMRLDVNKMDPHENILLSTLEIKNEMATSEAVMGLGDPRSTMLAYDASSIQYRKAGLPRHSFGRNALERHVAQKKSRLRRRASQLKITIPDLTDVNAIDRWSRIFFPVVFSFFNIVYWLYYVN
T4 sequence (P22723 39-474): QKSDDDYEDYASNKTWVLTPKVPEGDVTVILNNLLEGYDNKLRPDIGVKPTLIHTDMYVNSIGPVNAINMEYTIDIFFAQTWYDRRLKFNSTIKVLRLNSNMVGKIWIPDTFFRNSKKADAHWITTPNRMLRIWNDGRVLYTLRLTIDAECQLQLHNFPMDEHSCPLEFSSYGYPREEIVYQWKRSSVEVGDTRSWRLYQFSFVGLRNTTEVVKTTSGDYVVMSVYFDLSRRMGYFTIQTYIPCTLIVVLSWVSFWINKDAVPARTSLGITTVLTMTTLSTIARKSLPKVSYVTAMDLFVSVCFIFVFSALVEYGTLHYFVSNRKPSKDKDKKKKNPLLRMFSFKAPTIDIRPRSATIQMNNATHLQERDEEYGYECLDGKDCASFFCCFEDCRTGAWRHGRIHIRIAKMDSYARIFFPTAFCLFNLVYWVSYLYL
T2 sequence (P62813 28-455): as the sequence (P62813 28-455 V283S) above, with S256V counted along it
T2 sequence (P15431 26-474): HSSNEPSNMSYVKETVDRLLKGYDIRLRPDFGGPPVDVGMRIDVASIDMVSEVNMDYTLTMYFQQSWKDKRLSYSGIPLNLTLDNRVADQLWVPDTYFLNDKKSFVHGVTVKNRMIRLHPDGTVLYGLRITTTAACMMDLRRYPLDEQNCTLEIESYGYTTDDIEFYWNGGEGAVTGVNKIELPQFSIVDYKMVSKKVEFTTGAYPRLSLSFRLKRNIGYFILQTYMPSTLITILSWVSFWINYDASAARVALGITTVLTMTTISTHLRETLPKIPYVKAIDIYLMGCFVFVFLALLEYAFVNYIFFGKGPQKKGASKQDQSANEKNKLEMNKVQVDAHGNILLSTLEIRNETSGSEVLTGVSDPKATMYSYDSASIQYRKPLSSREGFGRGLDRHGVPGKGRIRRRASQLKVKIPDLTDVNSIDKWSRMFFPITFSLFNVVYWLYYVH
T2 sequence (P22723 39-474): as the sequence (P22723 39-474) above

Broadly, the Kd is the constant that tells how readily two partners part at equilibrium. Take `C[C@H](CCC(=O)O)[C@H]1CC[C@H]2[C@@H]3[C@@H](O)C[C@@H]4C[C@H](O)CC[C@]4(C)[C@H]3CC[C@]12C` [UDCA, ursodeoxycholic acid]: in data set [1], the “additivity of outward currents of maximal UDCA (300, 600 µM) and picrotoxin (25 µM)” value is “not additive”. Also, the IC50 in data set [1] (roughly estimated, read-out: half-maximal effect on outward shift of baseline current) was approximately 100 µM; on α1β1γ2L GABAA receptors it was 96 ± 17 µM; in the data set with native GABAA receptors (native receptors, steady-state currents, read-out: IC50 of inhibition of GABA-evoked currents) it was 92 µM; in data set [2] (read-out: IC50 of block of histamine-evoked currents), 7.4 ± 2 µM; in data set [4] (n = 4), 330 ± 41 µM. The “deactivation time constant (τoff)” value in the data set with native GABAA receptors is “prolonged”. Further, the “peak current amplitude of maximal GABA-mediated whole-cell currents” value in the data set on native GABAA receptors is reported as “not affected”. Besides, the “use dependence of block of GABA currents” value in the data set on native GABAA receptors is on record as “not use dependent”. In addition, in the data set with native GABAA receptors (GABA 10 µM, 1 s), the “reversibility of block of GABA currents” value is “fully reversible”. For the same molecule, the “concentration at which inhibition of GABA-evoked currents and sIPSCs starts” value in the data set on native GABAA receptors (acutely isolated histaminergic neurons) worked out at 10 µM. Moreover, the “macroscopic apparent desensitization of responses to saturating GABA” value with native GABAA receptors (decrease of fast decay time constant and steady-state/peak ratio) was “concentration-dependently enhanced”. In data set [2], the “Hill coefficient nH of UDCA block” value worked out at 0.8. Moreover, in data set [3], the “share of the total bile acid pool” value was 58–69%. Also, in data set [4] (UDCA 100 µM, n = 5), the “relative amplitude of maximal GABA-responses” value is on record as 87±1 % of control. Moreover, the “current amplitude at +50 mV in the presence of UDCA” value in the data set with GABAA receptor is listed as 69±5 % of control (−50 mV). For the same molecule, in the data set on GABAA receptor (Woodhull fit, Eq. 3), the “fraction of the transmembrane field sensed at the acceptor site (f)” value was determined as 0.29±0.03. Besides, at GABAA receptor (Woodhull fit, Eq. 3, read-out: KD(0), dissociation constant at 0 mV), the Kd is 64 µM. The “stationary GABA current in the presence of UDCA relative to unblocked current” value was 28±2% with GABAA receptor (at +50 mV) and 59±2% in the data set on GABAA receptor (at −50 mV).
